Read-outs that look alike come from different tables or passages of the source.

One test deals with dopamine transporter (UniProt P23977). Format: binding. The source says:
(§1) Illustrative in vitro assays for binding are described in Boja et al Ann. NY Acad. Sci. 654:282-291 (1992), which is incorporated herein by reference in its entirety. […] Alternatively, the compounds may be analyzed by their ability to inhibit reuptake of a labelled neurotransmitter in a sample, in particular, in synaptosomes.

The next test deals with T1, serotonin transporter (Rattus norvegicus, UniProt P31652).
T1 construct: from tissue
Kind of test: Inhibition of [3H]paroxetine radioligand binding at the serotonin transporter.
From the text: as §1

In test [1] the target is norepinephrine transporter (UniProt Q9WTR4). As to the kind of experiment: Inhibition of [3H]nisoxetine radioligand binding at the norepinephrine transporter.
From the text: as §1

The mark [2] stands for this setting: read-out: DA IC50 for inhibition of radioligand binding, DA=[3H]WIN 35,428.
Setting [3] is: 5-HT IC50 for inhibition of radioligand binding, 5-HT=[3H] paroxetine.
Where [4] appears, read: read-out: NEN IC50 for inhibition of radioligand binding, NEN=[3H] nisoxetine.
Setting [5] is: read-out: IC50 DA [3H]-WIN 35,428, Table IV.
Where [6] appears, read: IC50 5-HT [3H]-paroxetine, Table IV.
[7] abbreviates: read-out: IC50 NE [3H]-nisoxetine, Table IV.
The mark [8] stands for this setting: 5-HT=[3H] paroxetine, read-out: 5-HT IC50 for inhibition of radioligand binding.

T1 sequence (P31652 whole entry): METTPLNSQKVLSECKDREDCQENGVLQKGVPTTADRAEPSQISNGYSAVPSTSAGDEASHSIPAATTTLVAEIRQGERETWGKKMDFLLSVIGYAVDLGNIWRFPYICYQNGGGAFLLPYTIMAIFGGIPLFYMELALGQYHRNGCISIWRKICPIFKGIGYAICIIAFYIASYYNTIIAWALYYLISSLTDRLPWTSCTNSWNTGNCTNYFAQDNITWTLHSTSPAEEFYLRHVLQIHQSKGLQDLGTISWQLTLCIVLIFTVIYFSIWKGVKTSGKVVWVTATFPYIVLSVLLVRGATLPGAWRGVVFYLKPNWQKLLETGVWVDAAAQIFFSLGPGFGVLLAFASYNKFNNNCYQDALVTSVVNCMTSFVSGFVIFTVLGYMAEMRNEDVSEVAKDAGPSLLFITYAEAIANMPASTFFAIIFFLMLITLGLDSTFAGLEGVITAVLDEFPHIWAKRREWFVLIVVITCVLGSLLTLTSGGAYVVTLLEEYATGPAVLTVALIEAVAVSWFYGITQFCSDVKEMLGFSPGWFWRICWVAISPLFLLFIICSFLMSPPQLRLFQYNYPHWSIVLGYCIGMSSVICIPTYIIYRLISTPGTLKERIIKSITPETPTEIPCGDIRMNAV

With `Cc1noc(C2C(c3ccccc3)CC3CCC2N3C)n1` (stereo not drawn) [RTI-4229-126], the IC50 on dopamine transporter (setting [2]) was found to be 100 nM; on serotonin transporter (setting [3]), 3820 nM; in test [1] (setting [4]), 7880 nM.

In the case of `CC(C)C1C(c2ccc(Cl)cc2)CC2CCC1N2C` (stereo not drawn) [RTI-4229-240], the IC50 was 1.38 nM on dopamine transporter (setting [2]); 1.38 ± 0.03 nM at dopamine transporter (setting [5]); 38.4 nM on serotonin transporter (setting [3]); 38.4 ± 2.31 nM at serotonin transporter (setting [6]); 84.5 ± 3.09 nM in test [1] (setting [7]); 84.5 nM in test [1] (setting [4]).

With `Cc1ccc(C2CC3CCC(C2C(=O)Oc2ccccc2)N3C)cc1` (stereo not drawn) [RTI-4229-120], the values for the half-inhibitory concentration (IC50) (at dopamine transporter (setting [2]); on serotonin transporter (setting [8]); in test [1] (setting [4])) were 3.26 nM, 24500 nM and 5830 nM, respectively.

As for `CC(C)OC(=O)C1C(c2ccc(Cl)cc2)CC2CCC1N2C` (stereo not drawn) [RTI-4229-114], the figures for the IC50 (at dopamine transporter (setting [2]); on serotonin transporter (setting [8]); in test [1] (setting [4])) were 1.4 nM, 1400 nM and 778 nM, respectively.

Turning to `Cc1noc([C@@H]2C3CCC(C[C@H]2c2ccccc2)N3C)n1` (stereo partly drawn) [RTI-4229-119], the IC50 on dopamine transporter (setting [2]) is 167 nM; on serotonin transporter (setting [3]) it was 40600 nM; in test [1] (setting [4]), 6990 nM.

On to `COC(=O)[C@@H]1C2CCC(C[C@@H]1c1ccc(N)c(Br)c1)N2C` (stereo partly drawn) [RTI-4229-97], for which the half-maximal inhibitory concentration (IC50) on dopamine transporter (setting [2]) stood at 3.91 nM; on serotonin transporter (setting [3]), 181 nM; in test [1] (setting [4]) it was 282 nM.

Consider `CC(=O)OC[C@@H]1C2CCC(C[C@@H]1c1ccc(Cl)cc1)N2C` (stereo partly drawn) [RTI-4229-105], for which the IC50 on dopamine transporter (setting [2]) is 1.6 nM; at dopamine transporter (setting [5]), 1.8 ± 0.05 nM; at serotonin transporter (setting [3]), 143 nM; at serotonin transporter (setting [6]), 143 ± 25 nM; in test [1] (setting [7]), 127 ± 5.9 nM; in test [1] (setting [4]), 127 nM.

On to `Cc1ccc(C2CC3CCC(C2C(C)C)N3C)cc1` (stereo not drawn) [RTI-4229-239], for which the IC50 at dopamine transporter (setting [2]) was 0.61 nM; at dopamine transporter (setting [5]) it was 0.61 ± 0.07 nM; at serotonin transporter (setting [3]), 114 nM; at serotonin transporter (setting [6]), 114 ± 3.69 nM; in test [1] (setting [7]) it was 35.6 ± 2.57 nM; in test [1] (setting [4]) it was 35.6 nM.

As to `COC(=O)[C@@H]1C2CCC(C[C@@H]1c1ccc3ccccc3c1)N2C` (stereo partly drawn) [RTI-4229-318], the IC50 amounted to 0.51 nM at dopamine transporter (setting [2]), 0.8 nM on serotonin transporter (setting [3]) and 21.1 nM in test [1] (setting [4]).

As for `Cc1ccc(C2CC3CCC(C2C(=O)Oc2cccc(C)c2)N3C)cc1` (stereo not drawn) [RTI-4229-205], the IC50 worked out at 8.19 nM on dopamine transporter (setting [2]), 5240 nM at serotonin transporter (setting [8]) and 2140 nM in test [1] (setting [4]).

For the compound `COc1ccc(-c2noc(C3C(c4ccc(Cl)cc4)CC4CCC3N4C)n2)cc1` (stereo not drawn) [RTI-4229-141], the half-maximal inhibitory concentration (IC50) at dopamine transporter (setting [2]) was determined as 1.81 nM; on serotonin transporter (setting [3]), 337 nM; in test [1] (setting [4]), 835 nM.

With `Cc1ccc(C2CC3CCC([C@H]2C(=O)OC2CCC2)N3C)cc1` (stereo partly drawn) [RTI-4229-150], the 50% inhibitory concentration (IC50) on dopamine transporter (setting [2]) stood at 3.74 nM; at serotonin transporter (setting [3]), 2020 nM; in test [1] (setting [4]), 4740 nM.

For `CC#Cc1ccc(C2CC3CCC(C2C(=O)OC)N3C)cc1` (stereo not drawn) [RTI-4229-281], the IC50 at dopamine transporter (setting [2]) stood at 2.37 nM; at serotonin transporter (setting [8]), 15.7 nM; in test [1] (setting [4]) it was 820 nM.

Consider `CN1C2CCC1C(COC(=O)c1ccccc1)C(c1ccc(Cl)cc1)C2` (stereo not drawn) [RTI-4229-123], for which the IC50 came to 1.78 nM at dopamine transporter (setting [2]); 1.78 ± 0.09 nM at dopamine transporter (setting [5]); 3.53 nM on serotonin transporter (setting [3]); 3.53 ± 0.58 nM on serotonin transporter (setting [6]); 393 ± 30 nM in test [1] (setting [7]); 393 nM in test [1] (setting [4]).

For the compound `Cc1ccccc1OC(=O)C1C(c2ccc(Cl)cc2)CC2CCC1N2C` (stereo not drawn) [RTI-4229-204], the results for the 50% inhibitory concentration (IC50) (at dopamine transporter (setting [2]); at serotonin transporter (setting [8]); in test [1] (setting [4])) were 3.91 nM, 3770 nM and 4780 nM, respectively.

Regarding `Cc1ccc(C2CC3CCC([C@H]2c2nc(-c4ccccc4)no2)N3C)cc1` (stereo partly drawn) [RTI-4229-151], the concentration for half-maximal inhibition (IC50) at dopamine transporter (setting [2]) stood at 2.33 nM; at serotonin transporter (setting [3]) it was 1070 nM; in test [1] (setting [4]), 60 nM.

Turning to `Cc1ccc(C2CC3CCC(C2C(=O)OC2CC2)N3C)cc1` (stereo not drawn) [RTI-4229-193], the 50% inhibitory concentration (IC50) is 1.68 nM on dopamine transporter (setting [2]), 1070 nM on serotonin transporter (setting [8]) and 544 nM in test [1] (setting [4]).

As to `COC(=O)[C@H]1[C@@H](c2ccc(C#Cc3ccccc3)cc2)C[C@@H]2CC[C@H]1N2C` [RTI-4229-298], the concentration for half-maximal inhibition (IC50) on dopamine transporter (setting [2]) came out at 3.7 nM; at serotonin transporter (setting [3]) it was 46.8 nM; in test [1] (setting [4]), 347 nM.
